{"source": "patent US20250241957A1", "about": "“INTRA-ERYTHROCYTE DEXAMETHASONE FOR TREATMENT OF ATAXIA-[…]” (priority 2024, published 2025)", "origin": "cited, not measured here", "test_system": "participants with A-T", "settings": "betamethasone used for two years", "data": [{"compound": "C[C@H]1C[C@H]2[C@@H]3CCC4=CC(=O)C=C[C@]4(C)[C@@]3(F)[C@@H](O)C[C@]2(C)[C@@]1(O)C(=O)CO", "note": "[betamethasone]", "values": [{"measurement": "Adrenal suppression", "value": "documented in all participants"}]}]}
